# Laboratory results taken from ChEMBL document CHEMBL1148851, “Chemoenzymatic synthesis and in vitro studies on the hydrolysis of antimicrobial monoglycosyl diglycerides by pancreatic lipase” (2007).
# Test system: Staphylococcus aureus
# Assay: Antibacterial activity against Staphylococcus aureus ATCC 25923
# Format: functional
# Conditions: not given
row,Structure (SMILES),MIC [µg/mL]
1,CCCCCCCC(=O)OCC(CO[C@@H]1O[C@H](CO)[C@H](O)[C@H](O)[C@H]1O)OC(=O)CCCCCCC (stereo partly specified),32
2,CCCCCCCCCC(=O)OCC(CO[C@@H]1O[C@H](CO)[C@H](O)[C@H](O)[C@H]1O)OC(=O)CCCCCCCCC (stereo partly specified),32
3,CC/C=C\C/C=C\C/C=C\CCCCCCCC(=O)OCC(CO[C@@H]1O[C@H](CO)[C@@H](O)[C@H](O)[C@H]1O)OC(=O)CCCCCCC/C=C\C/C=C\C/C=C\CC (stereo partly specified),> 128
4,CCCCCCCCCCCCCC(=O)OCC(CO[C@@H]1O[C@H](CO)[C@H](O)[C@H](O)[C@H]1O)OC(=O)CCCCCCCCCCCCC (stereo partly specified),> 128

# Test system: Staphylococcus aureus
# Assay: Antibacterial activity against Staphylococcus aureus ATCC 105487
# Format: functional
# Conditions: not given
row,Structure (SMILES),MIC [µg/mL]
1,CCCCCCCC(=O)OCC(CO[C@@H]1O[C@H](CO)[C@H](O)[C@H](O)[C@H]1O)OC(=O)CCCCCCC (stereo partly specified),32
2,CCCCCCCCCC(=O)OCC(CO[C@@H]1O[C@H](CO)[C@H](O)[C@H](O)[C@H]1O)OC(=O)CCCCCCCCC (stereo partly specified),> 128
3,CC/C=C\C/C=C\C/C=C\CCCCCCCC(=O)OCC(CO[C@@H]1O[C@H](CO)[C@@H](O)[C@H](O)[C@H]1O)OC(=O)CCCCCCC/C=C\C/C=C\C/C=C\CC (stereo partly specified),> 128
4,CCCCCCCCCCCCCC(=O)OCC(CO[C@@H]1O[C@H](CO)[C@H](O)[C@H](O)[C@H]1O)OC(=O)CCCCCCCCCCCCC (stereo partly specified),> 128

# Test system: Enterococcus faecalis
# Assay: Antibacterial activity against Enterococcus faecalis ATCC 29212
# Format: functional
# Conditions: not given
row,Structure (SMILES),MIC [µg/mL]
1,CCCCCCCC(=O)OCC(CO[C@@H]1O[C@H](CO)[C@H](O)[C@H](O)[C@H]1O)OC(=O)CCCCCCC (stereo partly specified),32
2,CCCCCCCCCC(=O)OCC(CO[C@@H]1O[C@H](CO)[C@H](O)[C@H](O)[C@H]1O)OC(=O)CCCCCCCCC (stereo partly specified),> 128
3,CC/C=C\C/C=C\C/C=C\CCCCCCCC(=O)OCC(CO[C@@H]1O[C@H](CO)[C@@H](O)[C@H](O)[C@H]1O)OC(=O)CCCCCCC/C=C\C/C=C\C/C=C\CC (stereo partly specified),> 128
4,CCCCCCCCCCCCCC(=O)OCC(CO[C@@H]1O[C@H](CO)[C@H](O)[C@H](O)[C@H]1O)OC(=O)CCCCCCCCCCCCC (stereo partly specified),> 128

# Test system: Bacillus subtilis
# Assay: Antibacterial activity against Bacillus subtilis ATCC 6633
# Format: functional
# Conditions: Bacillus subtilis, ATCC 6633; read-out: MIC
row,Structure (SMILES),MIC [µg/mL]
1,CCCCCCCC(=O)OCC(CO[C@@H]1O[C@H](CO)[C@H](O)[C@H](O)[C@H]1O)OC(=O)CCCCCCC (stereo partly specified),32
2,CCCCCCCCCC(=O)OCC(CO[C@@H]1O[C@H](CO)[C@H](O)[C@H](O)[C@H]1O)OC(=O)CCCCCCCCC (stereo partly specified),> 128
3,CC/C=C\C/C=C\C/C=C\CCCCCCCC(=O)OCC(CO[C@@H]1O[C@H](CO)[C@@H](O)[C@H](O)[C@H]1O)OC(=O)CCCCCCC/C=C\C/C=C\C/C=C\CC (stereo partly specified),> 128
4,CCCCCCCCCCCCCC(=O)OCC(CO[C@@H]1O[C@H](CO)[C@H](O)[C@H](O)[C@H]1O)OC(=O)CCCCCCCCCCCCC (stereo partly specified),> 128

# Test system: Escherichia coli
# Assay: Antibacterial activity against Escherichia coli ATCC 25922
# Format: functional
# Conditions: not given
row,Structure (SMILES),MIC [µg/mL]
1,CCCCCCCC(=O)OCC(CO[C@@H]1O[C@H](CO)[C@H](O)[C@H](O)[C@H]1O)OC(=O)CCCCCCC (stereo partly specified),> 128
2,CCCCCCCCCC(=O)OCC(CO[C@@H]1O[C@H](CO)[C@H](O)[C@H](O)[C@H]1O)OC(=O)CCCCCCCCC (stereo partly specified),> 128
3,CC/C=C\C/C=C\C/C=C\CCCCCCCC(=O)OCC(CO[C@@H]1O[C@H](CO)[C@@H](O)[C@H](O)[C@H]1O)OC(=O)CCCCCCC/C=C\C/C=C\C/C=C\CC (stereo partly specified),> 128
4,CCCCCCCCCCCCCC(=O)OCC(CO[C@@H]1O[C@H](CO)[C@H](O)[C@H](O)[C@H]1O)OC(=O)CCCCCCCCCCCCC (stereo partly specified),> 128

# Test system: Pseudomonas aeruginosa
# Assay: Antibacterial activity against Pseudomonas aeruginosa ATCC 27753
# Format: functional
# Conditions: not given
row,Structure (SMILES),MIC [µg/mL]
1,CCCCCCCC(=O)OCC(CO[C@@H]1O[C@H](CO)[C@H](O)[C@H](O)[C@H]1O)OC(=O)CCCCCCC (stereo partly specified),> 128
2,CCCCCCCCCC(=O)OCC(CO[C@@H]1O[C@H](CO)[C@H](O)[C@H](O)[C@H]1O)OC(=O)CCCCCCCCC (stereo partly specified),> 128
3,CC/C=C\C/C=C\C/C=C\CCCCCCCC(=O)OCC(CO[C@@H]1O[C@H](CO)[C@@H](O)[C@H](O)[C@H]1O)OC(=O)CCCCCCC/C=C\C/C=C\C/C=C\CC (stereo partly specified),> 128
4,CCCCCCCCCCCCCC(=O)OCC(CO[C@@H]1O[C@H](CO)[C@H](O)[C@H](O)[C@H]1O)OC(=O)CCCCCCCCCCCCC (stereo partly specified),> 128

# Test system: Staphylococcus aureus
# Assay: Antibacterial activity against Staphylococcus aureus SA85 isolate
# Format: functional
# Conditions: not given
row,Structure (SMILES),MIC [µg/mL]
1,CCCCCCCC(=O)OCC(CO[C@@H]1O[C@H](CO)[C@H](O)[C@H](O)[C@H]1O)OC(=O)CCCCCCC (stereo partly specified),32
2,CCCCCCCCCC(=O)OCC(CO[C@@H]1O[C@H](CO)[C@H](O)[C@H](O)[C@H]1O)OC(=O)CCCCCCCCC (stereo partly specified),32
3,CC/C=C\C/C=C\C/C=C\CCCCCCCC(=O)OCC(CO[C@@H]1O[C@H](CO)[C@@H](O)[C@H](O)[C@H]1O)OC(=O)CCCCCCC/C=C\C/C=C\C/C=C\CC (stereo partly specified),> 128
4,CCCCCCCCCCCCCC(=O)OCC(CO[C@@H]1O[C@H](CO)[C@H](O)[C@H](O)[C@H]1O)OC(=O)CCCCCCCCCCCCC (stereo partly specified),> 128

# Test system: Staphylococcus aureus
# Assay: Antibacterial activity against Staphylococcus aureus SA52 isolate
# Format: functional
# Conditions: not given
row,Structure (SMILES),MIC [µg/mL]
1,CCCCCCCC(=O)OCC(CO[C@@H]1O[C@H](CO)[C@H](O)[C@H](O)[C@H]1O)OC(=O)CCCCCCC (stereo partly specified),> 128
2,CCCCCCCCCC(=O)OCC(CO[C@@H]1O[C@H](CO)[C@H](O)[C@H](O)[C@H]1O)OC(=O)CCCCCCCCC (stereo partly specified),> 128
3,CC/C=C\C/C=C\C/C=C\CCCCCCCC(=O)OCC(CO[C@@H]1O[C@H](CO)[C@@H](O)[C@H](O)[C@H]1O)OC(=O)CCCCCCC/C=C\C/C=C\C/C=C\CC (stereo partly specified),> 128
4,CCCCCCCCCCCCCC(=O)OCC(CO[C@@H]1O[C@H](CO)[C@H](O)[C@H](O)[C@H]1O)OC(=O)CCCCCCCCCCCCC (stereo partly specified),> 128

# Test system: Staphylococcus aureus
# Assay: Antibacterial activity against Staphylococcus aureus SA87 isolate
# Format: functional
# Conditions: Staphylococcus aureus; read-out: MIC
row,Structure (SMILES),MIC [µg/mL]
1,CCCCCCCC(=O)OCC(CO[C@@H]1O[C@H](CO)[C@H](O)[C@H](O)[C@H]1O)OC(=O)CCCCCCC (stereo partly specified),32
2,CCCCCCCCCC(=O)OCC(CO[C@@H]1O[C@H](CO)[C@H](O)[C@H](O)[C@H]1O)OC(=O)CCCCCCCCC (stereo partly specified),128
3,CC/C=C\C/C=C\C/C=C\CCCCCCCC(=O)OCC(CO[C@@H]1O[C@H](CO)[C@@H](O)[C@H](O)[C@H]1O)OC(=O)CCCCCCC/C=C\C/C=C\C/C=C\CC (stereo partly specified),> 128
4,CCCCCCCCCCCCCC(=O)OCC(CO[C@@H]1O[C@H](CO)[C@H](O)[C@H](O)[C@H]1O)OC(=O)CCCCCCCCCCCCC (stereo partly specified),> 128

# Test system: Mycobacterium tuberculosis
# Assay: Antibacterial activity against Mycobacterium tuberculosis H37Rv by dilution method
# Format: functional
# Conditions: Mycobacterium tuberculosis, H37Rv; read-out: MIC
row,Structure (SMILES),MIC [µg/mL]
1,CCCCCCCC(=O)OCC(CO[C@@H]1O[C@H](CO)[C@H](O)[C@H](O)[C@H]1O)OC(=O)CCCCCCC (stereo partly specified),128
2,CCCCCCCCCC(=O)OCC(CO[C@@H]1O[C@H](CO)[C@H](O)[C@H](O)[C@H]1O)OC(=O)CCCCCCCCC (stereo partly specified),128
3,CC/C=C\C/C=C\C/C=C\CCCCCCCC(=O)OCC(CO[C@@H]1O[C@H](CO)[C@@H](O)[C@H](O)[C@H]1O)OC(=O)CCCCCCC/C=C\C/C=C\C/C=C\CC (stereo partly specified),> 128
4,CCCCCCCCCCCCCC(=O)OCC(CO[C@@H]1O[C@H](CO)[C@H](O)[C@H](O)[C@H]1O)OC(=O)CCCCCCCCCCCCC (stereo partly specified),> 128

# Test system: Mycobacterium tuberculosis
# Assay: Antibacterial activity against Mycobacterium tuberculosis H160 by dilution method
# Format: functional
# Conditions: Mycobacterium tuberculosis, H160; read-out: MIC
row,Structure (SMILES),MIC [µg/mL]
1,CCCCCCCC(=O)OCC(CO[C@@H]1O[C@H](CO)[C@H](O)[C@H](O)[C@H]1O)OC(=O)CCCCCCC (stereo partly specified),128
2,CCCCCCCCCC(=O)OCC(CO[C@@H]1O[C@H](CO)[C@H](O)[C@H](O)[C@H]1O)OC(=O)CCCCCCCCC (stereo partly specified),64
3,CC/C=C\C/C=C\C/C=C\CCCCCCCC(=O)OCC(CO[C@@H]1O[C@H](CO)[C@@H](O)[C@H](O)[C@H]1O)OC(=O)CCCCCCC/C=C\C/C=C\C/C=C\CC (stereo partly specified),> 128
4,CCCCCCCCCCCCCC(=O)OCC(CO[C@@H]1O[C@H](CO)[C@H](O)[C@H](O)[C@H]1O)OC(=O)CCCCCCCCCCCCC (stereo partly specified),> 128

# Test system: Mycobacterium tuberculosis
# Assay: Antibacterial activity against Mycobacterium tuberculosis H190 by dilution method
# Format: functional
# Conditions: not given
row,Structure (SMILES),MIC [µg/mL]
1,CCCCCCCC(=O)OCC(CO[C@@H]1O[C@H](CO)[C@H](O)[C@H](O)[C@H]1O)OC(=O)CCCCCCC (stereo partly specified),128
2,CCCCCCCCCC(=O)OCC(CO[C@@H]1O[C@H](CO)[C@H](O)[C@H](O)[C@H]1O)OC(=O)CCCCCCCCC (stereo partly specified),64
3,CC/C=C\C/C=C\C/C=C\CCCCCCCC(=O)OCC(CO[C@@H]1O[C@H](CO)[C@@H](O)[C@H](O)[C@H]1O)OC(=O)CCCCCCC/C=C\C/C=C\C/C=C\CC (stereo partly specified),> 128
4,CCCCCCCCCCCCCC(=O)OCC(CO[C@@H]1O[C@H](CO)[C@H](O)[C@H](O)[C@H]1O)OC(=O)CCCCCCCCCCCCC (stereo partly specified),> 128

# Test system: Candida albicans
# Assay: Antifungal activity against Candida albicans by dilution method
# Format: functional
# Conditions: not given
row,Structure (SMILES),MIC [µg/mL]
1,CCCCCCCC(=O)OCC(CO[C@@H]1O[C@H](CO)[C@H](O)[C@H](O)[C@H]1O)OC(=O)CCCCCCC (stereo partly specified),> 128
2,CCCCCCCCCC(=O)OCC(CO[C@@H]1O[C@H](CO)[C@H](O)[C@H](O)[C@H]1O)OC(=O)CCCCCCCCC (stereo partly specified),> 128
3,CC/C=C\C/C=C\C/C=C\CCCCCCCC(=O)OCC(CO[C@@H]1O[C@H](CO)[C@@H](O)[C@H](O)[C@H]1O)OC(=O)CCCCCCC/C=C\C/C=C\C/C=C\CC (stereo partly specified),> 128
4,CCCCCCCCCCCCCC(=O)OCC(CO[C@@H]1O[C@H](CO)[C@H](O)[C@H](O)[C@H]1O)OC(=O)CCCCCCCCCCCCC (stereo partly specified),> 128

# Test system: Kluyveromyces marxianus
# Assay: Antifungal activity against Candida pseudotropicalis by dilution method
# Format: functional
# Conditions: not given
row,Structure (SMILES),MIC [µg/mL]
1,CCCCCCCC(=O)OCC(CO[C@@H]1O[C@H](CO)[C@H](O)[C@H](O)[C@H]1O)OC(=O)CCCCCCC (stereo partly specified),> 128
2,CCCCCCCCCC(=O)OCC(CO[C@@H]1O[C@H](CO)[C@H](O)[C@H](O)[C@H]1O)OC(=O)CCCCCCCCC (stereo partly specified),> 128
3,CC/C=C\C/C=C\C/C=C\CCCCCCCC(=O)OCC(CO[C@@H]1O[C@H](CO)[C@@H](O)[C@H](O)[C@H]1O)OC(=O)CCCCCCC/C=C\C/C=C\C/C=C\CC (stereo partly specified),> 128
4,CCCCCCCCCCCCCC(=O)OCC(CO[C@@H]1O[C@H](CO)[C@H](O)[C@H](O)[C@H]1O)OC(=O)CCCCCCCCCCCCC (stereo partly specified),> 128
